Experimental data from patent US9309242B2, “Substituted pyrido[2,3-b]pyrazines as FGFR kinase inhibitors” (priority 2011, dated 2016).

How the values were obtained:
FGFR4 (h) = FGFR4 (h) (Homo sapiens, UniProt P22455); assay: FGFR4 (enzymatic assay), TR-FRET; type: biochemical; conditions: FGFR 4 pIC50, enzymatic assay
[1] = system: Ba/F3-FGFR1-transfected cells; assay: Ba/F3-FGFR1 (plus IL3) cellular proliferation assay, counterscreen with 10 ng/ml murine IL3; type: cell-based; conditions: plus IL3 (10 ng/ml murine IL3, counterscreen); read-out: BAF3-FGFR1 (PLUS IL3) pIC50 (converted)
In short: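 Proliferation read-out: resazurin-based Alamar Blue fluorescence (540/590 nm) after 4 h, following 24 h compound treatment of 20000 Ba/F3-FGFR1 cells per well in 10% FBS RPMI at 37° C. IL3 counterscreen used the same protocol plus 10 ng/ml murine IL3.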

[2] = biological target: T1, Ba/F3-FGFR1-transfected cells (Homo sapiens, UniProt P11362); assay: Ba/F3-FGFR1 (minus IL3) cellular proliferation assay, Alamar Blue; type: cell-based
T1 construct: BAF3-FGFR1 (MIN IL3) pIC50; other: minus IL3
In short: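 Ba/F3 cells transfected with FGFR1 (20000 cells/well) were plated onto compound in phenol red-free RPMI-1640 with 10% FBS, 2 mM L-glutamine and gentamycin, then kept 24 h at 37 °C, 5% CO2. Alamar Blue (resazurin) was added for 4 h and fluorescence read at ex 540/em 590 nm.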

FGFR2 (h) = FGFR2 (h) (Homo sapiens, UniProt P21802); assay: FGFR2 (enzymatic assay), TR-FRET; type: biochemical; conditions: enzymatic assay; read-out: FGFR 2 pIC50 (converted)
In short: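 hFGFR2 150 ng/ml; Btn-Flt3 500 nM; ATP 0.4 μM; 50 mM HEPES pH 7.5, 6 mM MnCl2, 1 mM DTT, 0.1 mM Na3VO4, 0.01% Triton-X-100; 1% DMSO final.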

T1 sequence (P11362 whole entry, change not shown): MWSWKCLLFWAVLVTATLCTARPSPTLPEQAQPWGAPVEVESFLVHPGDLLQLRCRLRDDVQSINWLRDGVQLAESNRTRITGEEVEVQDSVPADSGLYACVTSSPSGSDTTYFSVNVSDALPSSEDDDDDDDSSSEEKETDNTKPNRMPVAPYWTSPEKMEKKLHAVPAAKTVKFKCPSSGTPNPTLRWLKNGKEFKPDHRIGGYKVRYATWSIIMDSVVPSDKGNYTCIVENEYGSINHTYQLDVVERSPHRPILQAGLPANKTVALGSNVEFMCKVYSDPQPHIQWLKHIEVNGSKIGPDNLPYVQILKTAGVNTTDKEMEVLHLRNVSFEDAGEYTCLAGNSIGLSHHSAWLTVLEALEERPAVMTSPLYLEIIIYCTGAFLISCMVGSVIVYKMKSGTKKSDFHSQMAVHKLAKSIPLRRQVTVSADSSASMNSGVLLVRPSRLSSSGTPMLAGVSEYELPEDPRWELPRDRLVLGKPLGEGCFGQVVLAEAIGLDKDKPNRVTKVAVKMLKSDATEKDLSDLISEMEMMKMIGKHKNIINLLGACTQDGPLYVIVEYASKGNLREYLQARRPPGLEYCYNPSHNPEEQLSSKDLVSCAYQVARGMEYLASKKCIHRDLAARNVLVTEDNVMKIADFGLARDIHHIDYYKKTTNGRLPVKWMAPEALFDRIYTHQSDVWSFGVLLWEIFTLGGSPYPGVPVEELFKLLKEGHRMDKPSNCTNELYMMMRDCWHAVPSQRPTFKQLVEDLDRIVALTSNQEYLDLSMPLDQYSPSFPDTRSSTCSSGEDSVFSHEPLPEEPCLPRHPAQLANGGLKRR
Chain of FGFR4 (h) (P22455 22-802): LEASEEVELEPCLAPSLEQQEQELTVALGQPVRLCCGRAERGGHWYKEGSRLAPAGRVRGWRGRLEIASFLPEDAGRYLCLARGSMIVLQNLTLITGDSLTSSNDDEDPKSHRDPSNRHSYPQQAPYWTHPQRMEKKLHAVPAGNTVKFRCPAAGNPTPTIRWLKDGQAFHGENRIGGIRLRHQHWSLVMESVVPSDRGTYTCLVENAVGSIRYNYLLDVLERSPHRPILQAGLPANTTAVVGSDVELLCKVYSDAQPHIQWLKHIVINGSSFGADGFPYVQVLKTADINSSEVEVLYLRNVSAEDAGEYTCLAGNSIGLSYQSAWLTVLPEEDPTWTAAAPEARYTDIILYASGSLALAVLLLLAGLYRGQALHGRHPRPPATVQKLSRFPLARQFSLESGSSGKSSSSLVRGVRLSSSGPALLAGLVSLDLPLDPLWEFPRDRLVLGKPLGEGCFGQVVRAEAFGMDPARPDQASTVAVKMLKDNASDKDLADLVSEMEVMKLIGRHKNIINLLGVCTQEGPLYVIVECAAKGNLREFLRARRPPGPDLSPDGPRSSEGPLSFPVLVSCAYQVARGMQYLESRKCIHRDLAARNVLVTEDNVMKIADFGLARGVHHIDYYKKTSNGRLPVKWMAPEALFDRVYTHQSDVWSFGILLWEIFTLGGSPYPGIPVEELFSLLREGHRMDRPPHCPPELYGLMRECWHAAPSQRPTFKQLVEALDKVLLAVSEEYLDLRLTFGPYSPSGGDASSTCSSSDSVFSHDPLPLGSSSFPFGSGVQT
Chain of FGFR2 (h) (P21802 22-821): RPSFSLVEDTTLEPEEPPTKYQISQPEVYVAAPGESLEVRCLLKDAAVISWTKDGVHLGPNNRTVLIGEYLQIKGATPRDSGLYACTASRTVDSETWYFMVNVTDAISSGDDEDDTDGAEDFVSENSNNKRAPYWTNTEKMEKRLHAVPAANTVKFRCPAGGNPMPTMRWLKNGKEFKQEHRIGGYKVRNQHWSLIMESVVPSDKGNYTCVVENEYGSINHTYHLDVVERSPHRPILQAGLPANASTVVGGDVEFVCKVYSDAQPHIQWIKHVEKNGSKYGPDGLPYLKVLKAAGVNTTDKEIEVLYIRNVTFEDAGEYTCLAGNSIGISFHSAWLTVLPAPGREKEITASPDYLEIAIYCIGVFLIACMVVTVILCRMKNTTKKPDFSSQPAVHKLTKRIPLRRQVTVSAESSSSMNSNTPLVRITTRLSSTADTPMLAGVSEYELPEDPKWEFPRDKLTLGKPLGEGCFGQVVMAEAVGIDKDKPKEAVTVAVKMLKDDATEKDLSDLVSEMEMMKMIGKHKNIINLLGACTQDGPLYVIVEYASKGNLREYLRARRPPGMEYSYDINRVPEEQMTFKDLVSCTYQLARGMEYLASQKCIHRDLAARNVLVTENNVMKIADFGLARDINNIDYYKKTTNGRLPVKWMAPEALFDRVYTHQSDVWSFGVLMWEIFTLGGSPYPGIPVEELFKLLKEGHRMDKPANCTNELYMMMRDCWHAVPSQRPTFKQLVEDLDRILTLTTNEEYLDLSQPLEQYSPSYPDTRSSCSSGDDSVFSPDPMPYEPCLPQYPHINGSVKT

`COc1cc(OC)c(F)c(N(CC2CC2)c2ccc3ncc(-c4cnn(C)c4)nc3n2)c1F` (single isomer, unassigned) [Compound 268] was tested, and the IC50 (FGFR4 (h)) was 2.57 nM, the IC50 [1] was > 10000 nM and the “BAF3-FGFR1 (MIN IL3) pIC50” value [2] was 7.44. It also gave an IC50 (FGFR2 (h)) of 2.82 nM.
In the case of `COc1cc(OC)c(F)c(N(CC(O)c2cnn(C)c2)c2ccc3ncc(-c4cnn(C)c4)nc3n2)c1` (centres unmarked) [Compound 244], the IC50 (FGFR4 (h)) is reported as 16.2 nM, the IC50 [1] is reported as > 10000 nM and the “BAF3-FGFR1 (MIN IL3) pIC50” value [2] is reported as 6.76. It also gave an IC50 (FGFR2 (h)) of 5.01 nM.
In the case of `COc1cc(OC)c(F)c(N(CC(C)(C)O)c2ccc3ncc(-c4cnn(C)c4)nc3n2)c1` [Compound 245], the IC50 (FGFR4 (h)) is reported as 15.8 nM, the IC50 [1] is reported as > 10000 nM and the “BAF3-FGFR1 (MIN IL3) pIC50” value [2] is reported as 6.86. It also gave an IC50 (FGFR2 (h)) of 4.47 nM.
In the case of `COc1cc(/N=c2\ccc3ncc(-c4cnn(C)c4)nc3n2CC(C)(C)O)c(F)c(OC)c1` [Compound 246], the IC50 (FGFR4 (h)) is reported as 2.09 nM, the IC50 [1] is reported as > 10000 nM and the “BAF3-FGFR1 (MIN IL3) pIC50” value [2] is reported as 7.25. The IC50 (FGFR2 (h)) was 1.51 nM.
With `COc1cc(/N=c2\ccc3ncc(-c4cnn(C)c4)nc3n2CC2CCC(=O)N2CCO)c(F)c(OC)c1` (centres unmarked) [Compound 247] the IC50 (FGFR4 (h)) was 1.82 nM, the IC50 [1] was > 10000 nM and the “BAF3-FGFR1 (MIN IL3) pIC50” value [2] was 7.51. The IC50 (FGFR2 (h)) was 2.34 nM.
With `COc1cc(OC)c(F)c(N(CC(=O)NC(C)C)c2ccc3ncc(-c4cnn(C)c4)nc3n2)c1` [Compound 249] the IC50 (FGFR4 (h)) was 33.1 nM, the IC50 [1] was > 10000 nM and the “BAF3-FGFR1 (MIN IL3) pIC50” value [2] was 6.70. For the same molecule, the IC50 (FGFR2 (h)) was 4.79 nM.
With `COc1cc(OC)cc(N(CC(O)COC(C)C)c2ccc3ncc(-c4cnn(CC(O)COC(C)C)c4)nc3n2)c1` (centres unmarked) [Compound 250] the IC50 (FGFR4 (h)) was 8.71 nM, the IC50 [1] was > 10000 nM and the “BAF3-FGFR1 (MIN IL3) pIC50” value [2] was 6.45. It also gave an IC50 (FGFR2 (h)) of 6.03 nM.
In the case of `COc1cc(OC)cc(N(Cc2c[nH]nn2)c2ccc3ncc(-c4cnn(C)c4)nc3n2)c1` [Compound 251], the IC50 (FGFR4 (h)) is reported as 2.69 nM, the IC50 [1] is reported as > 10000 nM and the “BAF3-FGFR1 (MIN IL3) pIC50” value [2] is reported as 6.99. The IC50 (FGFR2 (h)) was 1.41 nM.
With `COc1cc(OC)c(F)c(N(Cc2ncc[nH]2)c2ccc3ncc(-c4cnn(C5COC5)c4)nc3n2)c1` [Compound 253] the IC50 (FGFR4 (h)) was 1.91 nM, the IC50 [1] was > 10000 nM and the “BAF3-FGFR1 (MIN IL3) pIC50” value [2] was 8.61. For the same molecule, the IC50 (FGFR2 (h)) was 1.82 nM.
For `CCn1/c(=N/c2c(F)c(OC)cc(OC)c2F)ccc2ncc(-c3cnn(C)c3)nc21` [Compound 257], the IC50 (FGFR4 (h)) was 0.457 nM, the IC50 [1] was > 10000 nM and the “BAF3-FGFR1 (MIN IL3) pIC50” value [2] was 8.58. For the same molecule, the IC50 (FGFR2 (h)) was 1.35 nM.
`COc1cc(OC)c(F)c(N(Cc2c[nH]nn2)c2ccc3ncc(-c4cnn(C)c4)nc3n2)c1` [Compound 258] was tested, and the IC50 (FGFR4 (h)) was 1.32 nM, the IC50 [1] was > 10000 nM and the “BAF3-FGFR1 (MIN IL3) pIC50” value [2] was 7.38. It also gave an IC50 (FGFR2 (h)) of 1.45 nM.
With `COc1cc(OC)c(F)c(N(Cc2ncc[nH]2)c2ccc3ncc(N4C[C@@H](C)N[C@@H](C)C4)nc3n2)c1` [Compound 259] the IC50 (FGFR4 (h)) was 28.2 nM, the IC50 [1] was > 10000 nM and the “BAF3-FGFR1 (MIN IL3) pIC50” value [2] was 7.33. It also gave an IC50 (FGFR2 (h)) of 2.88 nM.
`COc1cc(OC)c(F)c(N(CC(=O)N2CCNCC2)c2ccc3ncc(-c4cnn(C)c4)nc3n2)c1` [Compound 262] was tested, and the IC50 (FGFR4 (h)) was 55 nM, the IC50 [1] was > 10000 nM and the “BAF3-FGFR1 (MIN IL3) pIC50” value [2] was 6.51. The IC50 (FGFR2 (h)) was 7.24 nM.
For `COc1cc(OC)c(F)c(N(Cc2ncc[nH]2)c2ccc3ncc(-c4cnn(CCS(C)(=O)=O)c4)nc3n2)c1` [Compound 264], the IC50 (FGFR4 (h)) was 1.38 nM, the IC50 [1] was > 10000 nM and the “BAF3-FGFR1 (MIN IL3) pIC50” value [2] was 7.66. For the same molecule, the IC50 (FGFR2 (h)) was 1.86 nM.
With `COc1cc(OC)c(F)c(N(CC2CC(O)C(=O)N2)c2ccc3ncc(-c4cnn(C)c4)nc3n2)c1` (centres unmarked) [Compound 269] the IC50 (FGFR4 (h)) was 3.09 nM, the IC50 [1] was > 10000 nM and the “BAF3-FGFR1 (MIN IL3) pIC50” value [2] was 6.72. The IC50 (FGFR2 (h)) was 3.24 nM.
In the case of `COc1cc(/N=c2\ccc3ncc(-c4cnn(C)c4)nc3n2CC2CC(O)C(=O)N2)c(F)c(OC)c1` (centres unmarked) [Compound 270], the IC50 (FGFR4 (h)) is reported as 2.29 nM, the IC50 [1] is reported as > 10000 nM and the “BAF3-FGFR1 (MIN IL3) pIC50” value [2] is reported as 7.12. The IC50 (FGFR2 (h)) was 2.09 nM.
For `COc1cc(OC)cc(N(CC2CC(O)C(=O)N2)c2ccc3ncc(-c4cnn(C)c4)nc3n2)c1` (centres unmarked) [Compound 271], the IC50 (FGFR4 (h)) was 7.76 nM, the IC50 [1] was > 10000 nM and the “BAF3-FGFR1 (MIN IL3) pIC50” value [2] was 6.02. For the same molecule, the IC50 (FGFR2 (h)) was 3.98 nM.
